Tested on: α-glucosidase (EC 3.2.1.20) derived from pig liver

Substance: α-Glucosyl naringin
- hydrolysis by α-glucosidase: hydrolyzed α-glucosyl naringin into naringin and D-glucose

From patent EP0455432A1, “Alpha-glycosyl naringin, and its preparation and uses” (KABUSHIKI KAISHA HAYASHIBARA SEIBUTSU KAGAKU KENKYUJO, priority 1990, dated 1991)
